Series [1] deals with T1, LDHA (lactate dehydrogenase A) (Homo sapiens, UniProt P00338).
T1 construct: gift clone
In words: spectrophotometric reduction with NADH. The series is classed as biochemical.

For another series, the target named is T2, PSAT1 (Homo sapiens, UniProt Q9Y617).
T2 sequence (Q9Y617 1-370): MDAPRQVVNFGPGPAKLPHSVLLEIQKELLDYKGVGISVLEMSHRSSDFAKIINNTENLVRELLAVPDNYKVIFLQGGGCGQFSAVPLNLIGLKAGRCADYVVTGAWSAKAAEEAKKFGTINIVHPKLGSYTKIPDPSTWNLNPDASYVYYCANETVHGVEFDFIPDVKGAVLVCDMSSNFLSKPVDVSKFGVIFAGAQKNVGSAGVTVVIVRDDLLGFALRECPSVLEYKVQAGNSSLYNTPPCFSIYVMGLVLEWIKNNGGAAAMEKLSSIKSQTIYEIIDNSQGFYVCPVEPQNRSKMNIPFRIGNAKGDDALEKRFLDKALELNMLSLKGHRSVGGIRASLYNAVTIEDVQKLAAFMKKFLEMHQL
The experiment in a line: end-point GDH assay of alpha-ketoglutarate; LC-MS of product. The conditions noted are these: L-Glu 1 mM as donor; pH 7.2, 37 C, 16 h. The series is classed as biochemical.

The target in series [2] is T3, MDH1 (cytosolic malate dehydrogenase) (Homo sapiens, UniProt P40925).
T3 construct: from human kidney cDNA, pET28a, His6-tagged, expressed in E. coli BL21(DE)
T3 sequence (P40925 2-334): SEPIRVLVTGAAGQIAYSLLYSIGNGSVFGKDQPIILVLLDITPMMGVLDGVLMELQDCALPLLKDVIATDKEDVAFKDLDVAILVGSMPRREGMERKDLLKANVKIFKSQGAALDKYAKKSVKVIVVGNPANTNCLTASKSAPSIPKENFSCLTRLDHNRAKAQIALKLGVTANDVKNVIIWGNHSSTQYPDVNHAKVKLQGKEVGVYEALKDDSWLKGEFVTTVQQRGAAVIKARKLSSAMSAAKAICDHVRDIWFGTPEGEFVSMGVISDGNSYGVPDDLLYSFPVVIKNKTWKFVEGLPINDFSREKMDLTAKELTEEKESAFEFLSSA
The experiment in a line: spectrophotometric reduction with NADH. The series is classed as biochemical.

Series [3] deals with T4, TAT (tyrosine aminotransferase) (Homo sapiens, UniProt P17735).
T4 sequence (P17735 41-454): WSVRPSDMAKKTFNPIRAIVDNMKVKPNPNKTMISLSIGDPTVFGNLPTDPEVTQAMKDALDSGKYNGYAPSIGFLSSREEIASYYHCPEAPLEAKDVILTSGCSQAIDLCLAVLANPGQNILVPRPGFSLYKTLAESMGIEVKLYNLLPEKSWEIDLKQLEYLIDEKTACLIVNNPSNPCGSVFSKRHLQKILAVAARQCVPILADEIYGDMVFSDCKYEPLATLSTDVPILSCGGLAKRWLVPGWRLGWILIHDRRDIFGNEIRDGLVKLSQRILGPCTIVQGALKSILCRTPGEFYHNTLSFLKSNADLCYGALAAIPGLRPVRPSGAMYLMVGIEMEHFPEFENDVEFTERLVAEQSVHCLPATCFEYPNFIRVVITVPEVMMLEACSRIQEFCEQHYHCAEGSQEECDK
The experiment in a line: continuous coupled assay with MDH1 and NADH. The series is classed as biochemical. The conditions noted are these: alpha-ketoglutarate 0.5 mM as acceptor; pH 8.0; read-out: apparent KM. An excerpt:
continuous coupled assay with MDH1 and NADH on TAT (tyrosine aminotransferase) | the opposite is true for TAT (Fig. 3A)

Substrate in series [4]: N[C@@H](Cc1c[nH]c2ccccc12)C(=O)O
The experiment in a line: continuous coupled assay with MDH1 and NADH. Type of series: biochemical, Homo sapiens. The conditions noted are these: pyruvate 3 mM as acceptor, pH 8.0.

As for `CC(O)C(=O)C(=O)O` (stereo not drawn) [3-hydroxy-2-ketobutyrate], the “spectrophotometric reduction with NADH” value in series [1] is 3-hydroxy-2-ketobutyrate, is a substrate for LDHA. As to `O=C(CO)COP(=O)(O)O` [DHAP], at PSAT1, the “end-point GDH assay of alpha-ketoglutarate; LC-MS of product” value is recorded as “DHAP, which reacted primarily with PSAT1”. `O=C(O)C(=O)Cc1c[nH]c2ccccc12` [IndPy]: in series [2], the “spectrophotometric reduction with NADH” value is “recombinant MDH1 reduced with good efficiency IndPy”. With `N[C@@H](Cc1c[nH]c2ccccc12)C(=O)O` [L-Trp], the Michaelis-Menten constant (Km) in series [3] is over 10 mM.

B1: GTK (glutamine transaminase K; KYAT1) (Homo sapiens) (protein)
chain: MAKQLQARRLDGIDYNPWVEFVKLASEHDVVNLGQGFPDFPPPDFAVEAFQHAVSGDFMLNQYTKTFGYPPLTKILASFFGELLGQEIDPLRNVLVTVGGYGALFTAFQALVDEGDEVIIIEPFFDCYEPMTMMAGGRPVFVSLKPGPIQNGELGSSSNWQLDPMELAGKFTSRTKALVLNTPNNPLGKVFSREELELVASLCQQHDVVCITDEVYQWMVYDGHQHISIASLPGMWERTLTIGSAGKTFSATGWKVGWVLGPDHIMKHLRTVHQNSVFHCPTQSQAAVAESFEREQLLFRQPSSYFVQFPQAMQRCRDHMIRSLQSVGLKPIIPQGSYFLITDISDFKRKMPDLPGAVDEPYDRRFVKWMIKNKGLVAIPVSIFYSVPHQKHFDHYIRFCFVKDEATLQAMDEKLRKWKVEL
notes: cytosolic enzyme
B1: in series [4], the Km stood at 0.14 ± 0.03 mM and the catalytic efficiency (kcat/Km) turned out to be 490 ± 30 M⁻¹ s⁻¹.

The values above are taken from publication PMC9283133, “Human cytosolic transaminases: side activities and patterns of discrimination towards physiologically available alternative substrates” (Cellular and Molecular Life Sciences: CMLS, 2022).
